From US8017612B2, “Piperazine compound and use thereof as a HCV polymerase inhibitor” (priority 2006, dated 2011)

How the values were obtained:
[1] = target: T1, HCV polymerase (NS5B) type 1b (Hepatitis C virus genotype 1b, UniProt P26663); experiment: Assay of enzyme (HCV polymerase) inhibitory activity, type 1b enzyme; assay type: biochemical, HCV BK strain (type 1b); conditions: HCV polymerase inhibitory activity IC50, 1b, type 1b enzyme
T1 construct: a region encoding NS5B (J Virol 1991 March, 65(3), 1105-13, 544 amino acids after deletion of 47 amino acids on the C-terminal); 6xHis (C); made in house; host or cells: Escherichia coli
Procedure, shortened: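 Rxn: NS5B 1b (BK, ΔC47, His6) 0.5 μg/ml; substrate RNA 5 μg/ml; ATP/GTP/CTP 50 μM, UTP 2 μM + [5,6-3H]UTP; 20 mM Tris pH 7.5, 5 mM MgCl2, 50 mM NaCl, 1 mM EDTA/DTT. 25 °C, 60 min. Stop with TCA/pyrophosphate, filter, scintillation count; IC50 vs. untreated.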

[2] = target: T2, HCV polymerase (NS5B) type 1a (Hepatitis C virus genotype 1a, UniProt P26664); experiment: Assay of enzyme (HCV polymerase) inhibitory activity, type 1a enzyme; assay type: biochemical, HCV type 1a (cloned from the blood of patients); conditions: HCV polymerase inhibitory activity IC50, 1a, type 1a enzyme
T2 construct: made in house; host or cells: Escherichia coli (by the 'similar method' of the 1b enzyme)
Procedure, shortened: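 NS5B Δ47 C-term His6 (type 1a, 1.5 μg/ml); substrate RNA 5 μg/ml; ATP/GTP/CTP 50 μM, UTP 2 μM + [5,6-3H]UTP; Tris pH 7.5, MgCl2 5 mM; 25° C, 60 min. TCA/pyrophosphate stop, GF/B filter, scintillation. IC50 vs no-compound control.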

Row | SMILES | IC50 [1] [µM] | IC50 [2] [µM]
1 | O=C(NCc1ccc(OC(F)(F)F)cc1)[C@H]1CN(c2nc3cnncc3s2)CCN1S(=O)(=O)c1ccc(C(F)(F)F)cc1 [Example 897, (R)-4-thiazolo[4,5-d]pyridazin-2-yl-1-(4-trifluoromethyl-benzenesulfonyl)-piperazine-2-carboxylic acid 4-trifluoromethoxy-benzylamide] | < 0.1 | < 0.1
2 | O=C(NCc1ccc(OC(F)(F)C(F)F)cc1)[C@H]1CN(c2nc3cn[nH]c(=O)c3s2)CCN1S(=O)(=O)c1ccc(OC(F)(F)F)cc1 [Example 898, (R)-4-(7-oxo-6,7-dihydro-thiazolo[4,5-d]pyridazin-2-yl)-1-(4-trifluoromethoxy-benzenesulfonyl)-piperazine-2-carboxylic acid 4-(1,1,2,2-tetrafluoro-ethoxy)-benzylamide] | < 0.1 | < 0.1
3 | O=C(NCC1CC(c2ccccc2)C1)[C@H]1CN(c2nc3cn[nH]c(=O)c3s2)CCN1S(=O)(=O)c1ccc(OC(F)(F)F)cc1 (stereo partly drawn) [Example 899, (R)-4-(7-oxo-6,7-dihydro-thiazolo[4,5-d]pyridazin-2-yl)-1-(4-trifluoromethoxy-benzenesulfonyl)-piperazine-2-carboxylic acid (3-phenyl-cyclobutylmethyl)-amide] | 0.1 to 1 | > 1
4 | CCC(F)(F)c1ccc(CNC(=O)[C@H]2CN(c3nc4cn[nH]c(=O)c4s3)CCN2S(=O)(=O)c2ccc(C(F)(F)F)cc2)cc1 [Example 900, (R)-4-(7-oxo-6,7-dihydro-thiazolo[4,5-d]pyridazin-2-yl)-1-(4-trifluoromethyl-benzenesulfonyl)-piperazine-2-carboxylic acid 4-(1,1-difluoro-propyl)-benzylamide] | < 0.1 | < 0.1
5 | O=C(NCc1ccc2ccccc2c1)[C@H]1CN(c2nc3cn[nH]c(=O)c3s2)CCN1S(=O)(=O)c1ccc(OC(F)(F)F)cc1 [Example 901, (R)-4-(7-oxo-6,7-dihydro-thiazolo[4,5-d]pyridazin-2-yl)-1-(4-trifluoromethoxy-benzenesulfonyl)-piperazine-2-carboxylic acid (naphthalen-2-ylmethyl)-amide] | < 0.1 | < 0.1
6 | CCC(F)(F)c1ccc(CNC(=O)[C@H]2CN(c3nc4nc(Cl)ncc4s3)CCN2S(=O)(=O)c2ccc(C(F)(F)F)cc2)cc1 [Example 902, (R)-4-(5-chloro-thiazolo[4,5-d]pyrimidin-2-yl)-1-(4-trifluoromethyl-benzenesulfonyl)-piperazine-2-carboxylic acid 4-(1,1-difluoro-propyl)-benzylamide] | < 0.1 | < 0.1
7 | CCC(F)(F)c1ccc(CNC(=O)[C@H]2CN(c3nc4ncncc4s3)CCN2S(=O)(=O)c2ccc(C(F)(F)F)cc2)cc1 [Example 903, (R)-4-thiazolo[4,5-d]pyrimidin-2-yl-1-(4-trifluoromethyl-benzenesulfonyl)-piperazine-2-carboxylic acid 4-(1,1-difluoro-propyl)-benzylamide] | < 0.1 | < 0.1
8 | Cn1ncc2nc(N3CCN(S(=O)(=O)c4ccc(OC(F)(F)F)cc4)[C@@H](C(=O)NCc4ccc(OC(F)(F)F)cc4)C3)sc2c1=O [Example 904, (R)-4-(6-methyl-7-oxo-6,7-dihydro-thiazolo[4,5-d]pyridazin-2-yl)-1-(4-trifluoromethoxy-benzenesulfonyl)-piperazine-2-carboxylic acid 4-trifluoromethoxy-benzylamide] | < 0.1 | 0.1 to 1
9 | COc1ncc2sc(N3CCN(S(=O)(=O)c4ccc(C(F)(F)F)cc4)[C@@H](C(=O)NCc4ccc(OC(F)(F)F)cc4)C3)nc2n1 [Example 905, (R)-4-(5-methoxy-thiazolo[4,5-d]pyrimidin-2-yl)-1-(4-trifluoromethyl-benzenesulfonyl)-piperazine-2-carboxylic acid 4-trifluoromethoxy-benzylamide] | < 0.1 | < 0.1
10 | Cc1nnc(Cl)c2sc(N3CCN(S(=O)(=O)c4ccc(OC(F)(F)F)cc4)[C@@H](C(=O)NCc4ccc(OC(F)(F)F)cc4)C3)nc12 [Example 906, (R)-4-(7-chloro-4-methyl-thiazolo[4,5-d]pyridazin-2-yl)-1-(4-trifluoromethoxy-benzenesulfonyl)-piperazine-2-carboxylic acid 4-trifluoromethoxy-benzylamide] | < 0.1 | < 0.1
11 | Cc1nc(Cl)c2sc(N3CCN(S(=O)(=O)c4ccc(OC(F)(F)F)cc4)[C@@H](C(=O)NCc4ccc(OC(F)(F)F)cc4)C3)nc2n1 [Example 907, (R)-4-(7-chloro-5-methyl-thiazolo[4,5-d]pyrimidin-2-yl)-1-(4-trifluoromethoxy-benzenesulfonyl)-piperazine-2-carboxylic acid 4-trifluoromethoxy-benzylamide] | < 0.1 | < 0.1
12 | Cc1ncc2sc(N3CCN(S(=O)(=O)c4ccc(OC(F)(F)F)cc4)[C@@H](C(=O)NCc4ccc(OC(F)(F)F)cc4)C3)nc2n1 [Example 908, (R)-4-(5-methyl-thiazolo[4,5-d]pyrimidin-2-yl)-1-(4-trifluoromethoxy-benzenesulfonyl)-piperazine-2-carboxylic acid 4-trifluoromethoxy-benzylamide] | < 0.1 | < 0.1
13 | CCCc1nc(C)c(CNC(=O)[C@H]2CN(c3nc4cn[nH]c(=O)c4s3)CCN2S(=O)(=O)c2ccc(OC(F)(F)F)cc2)s1 [Example 909, (R)-4-(7-oxo-6,7-dihydro-thiazolo[4,5-d]pyridazin-2-yl)-1-(4-trifluoromethoxy-benzenesulfonyl)-piperazine-2-carboxylic acid (4-methyl-2-propyl-thiazol-5-ylmethyl)-amide] | < 0.1 | 0.1 to 1
14 | Cc1nc2nc(N3CCN(S(=O)(=O)c4ccc(OC(F)(F)F)cc4)[C@@H](C(=O)NCc4ccc(OC(F)(F)F)cc4)C3)sc2c(=O)[nH]1 [Example 910, (R)-4-(5-methyl-7-oxo-6,7-dihydro-thiazolo[4,5-d]pyrimidin-2-yl)-1-(4-trifluoromethoxy-benzenesulfonyl)-piperazine-2-carboxylic acid 4-trifluoromethoxy-benzylamide] | < 0.1 | < 0.1
15 | CCC(F)(F)c1ccc(CNC(=O)[C@H]2CN(c3nc4nc(C)[nH]c(=O)c4s3)CCN2S(=O)(=O)c2ccc(OC(F)(F)F)cc2)cc1 [Example 911, (R)-4-(5-methyl-7-oxo-6,7-dihydro-thiazolo[4,5-d]pyrimidin-2-yl)-1-(4-trifluoromethoxy-benzenesulfonyl)-piperazine-2-carboxylic acid 4-(1,1-difluoro-propyl)-benzylamide] | < 0.1 | < 0.1
16 | O=C(NCc1ccc(OC(F)(F)F)cc1)[C@H]1CN(c2nc3nc(Br)ncc3s2)CCN1S(=O)(=O)c1ccc(OC(F)(F)F)cc1 [Example 912, (R)-4-(5-bromo-thiazolo[4,5-d]pyrimidin-2-yl)-1-(4-trifluoromethoxy-benzenesulfonyl)-piperazine-2-carboxylic acid 4-trifluoromethoxy-benzylamide] | < 0.1 | < 0.1
17 | CCCc1ccc(CNC(=O)[C@H]2CN(c3nc4nc(Cl)ncc4s3)CCN2S(=O)(=O)c2ccc(OC(F)(F)F)cc2)cc1 [Example 913, (R)-4-(5-chloro-thiazolo[4,5-d]pyrimidin-2-yl)-1-(4-trifluoromethoxy-benzenesulfonyl)-piperazine-2-carboxylic acid 4-propyl-benzylamide] | < 0.1 | < 0.1
